Entries after “also recorded” stand apart in the source; their conditions may differ.
What was measured:
LH secretion = assay: Ex vivo LH secretion into perfused medium, ELISA; format: cell-based, zebrafish; settings: GnRH pulse 300 μl of 30 μg/μl, n=5, paired t-test
Text: (§1) The calcium response observed in LH and FSH cells upon GnRH and CCK stimulation indicates a preferential stimulatory effect of the neuropeptides on each cell type. The effect of these neuropeptides on LH and FSH secretion was examined in order to determine the functional outcome of the stimulation. For that, we collected the medium perfused through our ex vivo system (Figure 3A and B) during our calcium imaging assays. The medium was subsequently used to measure LH and FSH secretion using a specific ELISA validated for zebrafish GTHs ([Hollander-Cohen et al., 2018]).
(§2) Adult fish were euthanized using ice-cold water and decapitated. […]
(§3) To measure hormone secretion in response to salmon GnRH analogue (D-Ala6,Pro9-Net)-mammalian GnRH (Bachem Inc, Torrance, CA) or zebrafish CCK [D-Y-[SO3H]-L-G-W-M-D-F, synthesized by GL Biochem] stimulation, the medium was collected through the chamber outlet during the entire imaging session (10 ml per session in total). […] Hormones were measured in the fractions before and after stimulation using ELISA developed for common carp, which was established in the Levavi-Sivan lab using recombinant carp gonadotropins produced in yeast, and had been previously shown to be suitable for zebrafish ([Whitlock et al., 2019]).

FSH plasma levels = assay: In vivo injection: FSH plasma levels (ELISA); parameters: species or system zebrafish; settings: intraperitoneal, 100 ng/g body weight, 2 hr; n=10; Fig 5C and D
Experimental: (§4) Six-month-old zebrafish (five males and five females) were injected intraperitoneally with the following: (1) fish CCK peptide [(D-Y[SO3H]-L-G-W-M-D-F-NH (2), synthesized by GL Biochem] at a concentration of 10 ng/g or 100 ng/g body weight, 2) salmon GnRH analogue (D-Ala6,Pro9-Net)-mammalian GnRH (Bachem Inc, Torrance, CA) at a concentration of 100 ng/g body weight, (3) similar volumes of saline. Two hours post-injection, the fish were sedated using MS-222, bled from the heart as previously described ([Biran et al., 2012]), and decapitated. Pituitaries were dissected under a stereomicroscope and placed in Total RNA Isolation Reagent (Trizol). From each fish, between 15 μl and 20 μl of blood was collected. The blood was centrifuged at 970 × g 30 min and the plasma was separated and stored at −20 °C. LH and FSH expression in the pituitary was measured using real-time PCR (see Figure 5—source data 1 for primer list). RNA extraction, reverse transcription of RNA, and real-time PCR were carried out as previously described ([Biran et al., 2008]). FSH secretion was measured in the plasma using ELISA for common carp, which was established in the Levavi Sivan lab using recombinant carp gonadotropins from in the yeast, and had been previously shown to be suitable for zebrafish ([Hollander-Cohen et al., 2018]).

FSH cells = assay: Ex vivo calcium imaging (RCaMP2), FSH cells; format: cell-based, zebrafish; settings: 78.74 µM
Experimental: (§5) Overall, whereas GnRH elicited a response in 95% of LH cells, only 56% of FSH cells responded to the treatment in the same fish (Figure 3E).
(§6) To functionally test the effect of CCK on gonadotroph activity, we applied the peptide (300 μl of 30 μg/ml CCK, 78.74 µM) to our ex vivo preparation and monitored the calcium response of the cells. […] The calcium response in FSH cells was highly synchronized (mean max cross-correlation coefficient, 0.7 ± 0.04; Figure 4B; Figure 4—figure supplement 1B). By contrast, the response of LH cells to CCK application was characterized by low mean of max cross-correlation coefficient values (0.43 ± 0.05; Figure 4B; Figure 4—figure supplement 1B).
Adult fish were euthanized using ice-cold water and decapitated. The head was transferred to ice-cold ACSF (124 mM NaCl, 3 mM KCl, 2 mM CaCl2, 2 mM MgSO4, 1.25 mM NaH2PO4, 26 mM NaHCO3, and 10 mM glucose (pH 7.2)) perfused with 5% CO2 and 95% O2. The heads were further dissected under a stereomicroscope. The ventral side of the head, including the jaw, gills, and mucus, was removed using fine forceps and microscissors, the optic nerves were cut and the eyes were removed. Next, the bone at the base of the skull that covers the pituitary (sella turcica) was removed using fine forceps. The head was placed in a dedicated chamber (Figure 3B) and stabilized with a slice anchor. […]
as §3, with “2019]). […]” for “2019]).”

[1] = tested on: three types of GnRH receptors that exist in fish; parameters: method as in Zohar and Mylonas, 2001; settings: ref Zohar and Mylonas, 2001; cited from earlier work
FSH secretion = assay: Ex vivo FSH secretion into perfused medium, ELISA; format: cell-based, zebrafish; settings: GnRH pulse 300 μl of 30 μg/μl (78.74 µM), n=5, paired t-test
Text: as §1, §2, §3

[2] = tested on: LH expression in the pituitary; assay: In vivo injection: LH expression in pituitary (real-time PCR); parameters: species or system zebrafish; settings: intraperitoneal, 100 ng/g body weight, 2 hr, n=10
Experimental: as §4

[3] = tested on: FSH cells in pituitary cell culture; settings: ref Lin and Ge, 2009; cited from earlier work
Text: GnRH has long been considered the common stimulator of gonadotropin secretion in vertebrates. However, accumulating evidence for GnRH-independent FSH secretion in several mammalian species has questioned the regulatory role of GnRH ([McCann et al., 2001]; [Padmanabhan et al., 1997]; [Culler and Negro-Vilar, 1987]; [Pau et al., 1991]).

LH cells = assay: Ex vivo calcium imaging (RCaMP2), LH cells; format: cell-based, zebrafish
Experimental: as §5, §6
Adult fish were euthanized using ice-cold water and decapitated. The head was transferred to ice-cold ACSF (124 mM NaCl, 3 mM KCl, 2 mM CaCl2, 2 mM MgSO4, 1.25 mM NaH2PO4, 26 mM NaHCO3, and 10 mM glucose (pH 7.2)) perfused with 5% CO2 and 95% O2. The heads were further dissected under a stereomicroscope. The ventral side of the head, including the jaw, gills, and mucus, was removed using fine forceps and microscissors, the optic nerves were cut and the eyes were removed. Next, the bone at the base of the skull that covers the pituitary (sella turcica) was removed using fine forceps. The head was placed in a dedicated chamber (Figure 3B) and stabilized with a slice anchor. The chamber had one inlet and one outlet, allowing for a constant flow of ACSF at a rate of 1 ml/min, and an additional inlet that was placed in proximity to the tissue for injections of stimuli. The total volume of ACSF in the chamber was 3 ml.
Imaging was performed in an inverted confocal fluorescent microscope (Leica SP8). R-CaMP2 activity was imaged at 4–10 Hz using the resonant scanner. The laser wavelength was 540 nm and the emission band was 630 nm. Images were taken using the 20x objective. Each imaging session lasted 10 min. Before and after each session, the tissue was imaged once for GFP (excitation, 488 nm, and emission, 530 nm) and R-CaMP2 (540 nm and 590 nm) in two separate channels. Images were processed using the Fiji program ([Schindelin et al., 2012]) for resolution using the Gaussian Blur filter and motion correction using the moco plugin ([Dubbs et al., 2016]).
To measure hormone secretion in response to salmon GnRH analogue (D-Ala6,Pro9-Net)-mammalian GnRH (Bachem Inc, Torrance, CA) or zebrafish CCK [D-Y-[SO3H]-L-G-W-M-D-F, synthesized by GL Biochem] stimulation, the medium was collected through the chamber outlet during the entire imaging session (10 ml per session in total). Each pituitary was imaged three times for 10 min: before, during, and after stimulation. The stimulus was applied manually as a pulse of 300 μl of […] (78.74 µM) peptide during the first 30 s of the imaging session. Hormones were measured in the fractions before and after stimulation using ELISA developed for common carp, which was established in the Levavi-Sivan lab using recombinant carp gonadotropins produced in yeast, and had been previously shown to be suitable for zebrafish ([Whitlock et al., 2019]).
Tissue viability was validated by monitoring the morphology and activity of the cells, looking at granulation and calcium changes. This specific preparation was also viable 2 hr after dissection, when all the cells responded to the different stimuli.
A composite of GFP-positive and RCaMP-positive cells was created to distinguish between LH and FSH cells. […]

(D-Ala6,Pro9-Net)-mammalian GnRH
LH secretion response to GnRH (LH secretion): significant rise in LH secretion
FSH expression and secretion response to GnRH injection (FSH plasma levels): did not reach statistical significance
calcium response to GnRH, FSH cells (FSH cells; GnRH 300 μl, n=10): partial increase in follicle-stimulating hormone (FSH) cells; also recorded: inconsistent response of FSH cells
percentage of cells responsive to GnRH stimulus, FSH cells (FSH cells; GnRH puff 300 μl, coefficient values higher than the 80 percentiles of basal values, same fish, n=10 (3 males, 7 females)): 56%
fish displaying an increase in cross-correlation values from the basal state, FSH cells (FSH cells; GnRH puff 300 μl, percent of fish, n=10): 50%
binding to fish GnRH receptors [1]: effectively binds to the three types of GnRH receptors that exist in fish
FSH secretion response to GnRH (FSH secretion): not significant from the basal secretion
LH expression in the pituitary after GnRH injection [2]: only affected LH expression in the pituitary; also recorded: Expression level increased significantly only in response to GnRH injection
FSH cells response to GnRH stimuli in pituitary cell culture [3]: lack of FSH cells response to GnRH stimuli in pituitary cell culture
calcium transient average half width, LH cells (LH cells; ex vivo brain-pituitary preparation, GnRH puff 78.74 µM, pH 7.2 ACSF, Fig 3-supplement 2: mean of 20 cell traces per fish, 3 females, 3 males): 48.6 s
calcium response to GnRH, LH cells (LH cells; ex vivo, GnRH 78.74 µM, n=10): synchronized increase of calcium in all luteinizing hormone (LH) cells; also recorded: strong and slow calcium rise
calcium transient average amplitude, LH cells (LH cells; ex vivo, GnRH puff 78.74 µM, Fig 3-supplement 2: mean of 20 cell traces per fish, 3 females, 3 males): 1.99 ∆F/F
percentage of cells responsive to GnRH stimulus, LH cells (LH cells; ex vivo, GnRH puff 78.74 µM, coefficient values higher than the 80 percentiles of basal values, n=10 (3 males, 7 females), p<0.001 vs FSH cells): 95%
mean of max cross-correlation coefficient of calcium traces, LH cells (LH cells; ex vivo, after GnRH puff 78.74 µM, basal 0.26 ± 0.02, n=10 (3 males, 7 females), mean ± SEM, p<0.0001): 0.66 ± 0.05
